Data from patent US7429460B2, “Methods of screening for inhibitors of phospholipid synthesis related to glycolipid-storage diseases” (Yeda Research and Development Co., Ltd., priority 2003, dated 2008).

Tests used:
human macrophages = assay: PC synthesis in macrophage cultures; format: cell-based; conditions: 500 μM CBE for 6 days
Experimental: Human macrophages were obtained from healthy donors. Blood samples were immediately diluted 2.5 times with PBS pH 7.4 and layered on 3 ml Ficoll Histopaque 1.077 in conical tubes. The tubes were then centrifuged at 400 g for 25 min. The peripheral blood mononuclear leukocyte (PBL) band at the PBS-plasma/Ficoll interface was taken for further analyses. PBL were washed twice with PBS pH 7.4, and resuspended in 5 ml of RPMI 1640 containing 10% fetal calf serum. An aliquot of the cell suspension was used to assess cell viability using the exclusion trypan-blue test. The cell suspension was adjusted to a final concentration of 6*10^6 cells/ml and incubated for 3 hours at 37° C. in a plastic Petri dish (Falcon). Non adherent cell suspension (mononuclear leukocytes) was then transferred to a culture flask while the adherent cells (mainly macrophages) were cultured separately in RPMI 1640 supplemented with 10% fetal calf serum, 2 mM L-glutamine, 100 U/ml penicillin and 0.1 mg/ml streptomycin. The cells were cultured in separate cultures with or without 500 μM CBE for 5 days; on day 5, PMA was added to the macrophage suspension (final concentration: 10 ng/ml) to allow full differentiation. […] The cells were thoroughly washed with non-radioactive medium and lipids were further extracted and analyzed as described herein above. […]

[1] = system: CTP:phosphocholine cytidylyltransferase (CCT); assay: CCT assay in hippocampal neuron homogenates with substance added to the assay mixture; format: biochemical, rat; conditions: added directly to the assay mixture
Experimental: Neurons from individual cover slips were washed twice with ice-cold phosphate-buffered saline, and cells removed by scraping into 300 μl of buffer containing 50 mM imidazole, 2 mM EDTA, 150 mM KCl, 6 mM ADP, 0.2 mM phenylmethylsulfonylfluoride, 1 μg/ml pepstatin and 1 μg/ml leupeptin. After brief sonication, an aliquot was removed for DNA determination and 100 μl was used for the CCT assay.
CCT was assayed as described (Weinhold P A and Feldman D A. 1992. Choline-phosphate cytidylyltransferase. Methods Enzymol. 209, 248-258), with some minor modifications. The assay was performed in a final volume of 200 μl containing 1.6 mM phosphorylcholine/0.25 μCi [^14C]methyl phosphorylcholine, 3 mM CTP, 12 mM magnesium acetate, and DOPC liposomes with or without oleic acid and GicCer or GalCer, as indicated in the figure legends. Liposomes were prepared by sonicating resuspended lipids in the assay buffer at room temperature for 3 min using a sonicator (Sonics & Materials Inc., Newtown, Conn.) fitted with a micro-tip probe set to 750 W output, using 25% of the maximal amplitude and with pulsations of 9.0 sec every 9.2 sec, which gave a translucent liposome preparation with no precipitates. The final concentration of DOPC and oleic acid in the liposomes was 500 μM each. The reaction was terminated after 25 min at 37° C. by addition of 200 μl of 150 mM phosphorylcholine in 10% trichloroacetic acid. CDP-choline was recovered by addition of 2 ml of 6% charcoal in water (w/v). After 30 min at room temperature the charcoal suspension was washed 4 times with water and centrifuged at 1,000 gav for 10 min. The aqueous supernatants were removed and CDP-choline was eluted from the charcoal with 3 washes of water/ethanol/28% NH4OH (116:188:11, v/v/v). Eluates were pooled and evaporated to dryness under N2. Phosphorylcholine and CDP-choline were added to the tubes and the samples separated by TLC using 0.9% NaCl/methanol/28% NE4OH (50:70:5, v/v/v) as the developing solvent. Metabolites were identified by iodine, and the CDP-choline spot was scraped into scintillation vials for scintillation counting.
CCT activity was assayed in homogenates prepared from 8-day-old normal rat hippocampal neurons as described herein above. The reaction mixture comprised 0.5 mM DOPC/0.5 mM oleic acid/0.3 mM sphingolipid or lyso-sphingolipid. CCT activity with each sphingolipid or lyso-sphingolipid was measured twice. Basal CCT activity differed by ˜20% between the two experiments; however, the extent of activation or inhibition of CT activity was similar for each sphingolipid and lyso-sphingolipid.

CCT α and β1/2 RNA = assay: RT-PCR of CCT isoforms in treated neurons; format: cell-based, rat; conditions: 500 μM CBE, up to 8-days
Experimental: Total cellular RNA was prepared from ˜0.5×10^6 neurons grown on 24 mm cover slips using the RNeasy Mini Kit (Qiagen, Hilden, Germany) according to manufacturers'instructions. The reverse transcription-polymerase chain reaction (RT-PCR) was performed using the QIAGEN OneStep RT-PCR kit (Qiagen, Hilden, Germany). Briefly, each reaction contained 10 ng of total RNA, 0.6 μM of primers, 1.6 mM deoxynucleotide triphosphates (0.4 mM each) and 1 μl QIAGEN OneStep RT-PCR Enzyme Mix in the supplied buffer in a total volume of 25 μl. Primers (CCT: 5′-ACTTTAGTAA GCCCTATGTC (SEQ ID NO. 7) and 5′-[…] (SEQ ID NO. 8), 34 cycles, annealing temperatures 53° C.; CCT: 5′-[…] (SEQ ID NO. 9) and 5′-[…] (SEQ ID NO. 10), 30 cycles, annealing temperature 51° C.; glyceraldehyde -3-phosphate dehydrogenase: 5′-TTAGCACCCCTGGCCAAGG (SEQ ID NO. 11) and 5′- ATTACTCCTT GGAGGCCATG (SEQ ID NO. 12), 23 cycles, annealing temperature 50° C.) were designed using the MacMolly Tetra program (Sofigene, Berlin, Germany) and were synthesized by the Weizmann Institute Oligonucleotide and Peptide Synthesis facility. […] PCR products, 9 μl each, were analyzed by electrophoresis in 1.5 % agarose gels.

rat hippocampal neurons = conditions: 200 μM CBE, after 3 days in culture; cited from earlier work

O[C@H]1[C@H](O)[C@@H](O)[C@@H]2O[C@@H]2[C@@H]1O (racemic) [CBE, conduritol-B-epoxide]
[14C]-PC in treated macrophages (human macrophages): dramatic increase
effect on CCT activity when added directly to the assay mixture [1]: had no effect
CCT RNA levels (RT-PCR) (CCT α and β1/2 RNA): No changes
axons longer than untreated counterparts (rat hippocampal neurons): ~20%
